In patent US20070292351A1, “Assay for efficacy of histone deacetylase inhibitors” (Methylgene, Inc., priority 2006, published 2007):
Where two headings read alike, the source gives them in different places.

How the values were obtained:
[1] = test system: human peripheral white cells; experiment: Microarray gene expression analysis, peripheral white cells ex vivo; format: cell-based; conditions: WBC ex vivo
Description: (§1) Whole blood from either consenting healthy volunteers or consenting patients was centrifuged at 2500 rpm for 10 minutes at ambient temperature in a Sorvall RT-7 centrifuge (Mandel Scientific Co., Guelph, Ontario). Plasma was removed and buffy coat was collected. Five volumes of Erythrocyte Lysis Buffer (EL) (Qiagen Canada Inc., Mississauga, Ontario) were added into buffy coat. Buffy coat was incubated on ice for 20 minutes before it was centrifuged at 400 g for 10 minutes at 4° C. Supernatant was removed and buffy coat was washed twice with EL buffer and re-centrifuged. Buffy coat was resuspended in RPMI media and cells were counted with trypan blue exclusion. To isolate PBMCs, buffy coat cells were centrifuged over Lymphoprep (Axis-Shield, 1114544), and any remaining erythrocytes in the sample were lysed by treatment with EL lysis buffer (Qiagen, 79217). The cell pellets are washed and then re-suspended in RPMI containing 10% FBS.
Biological analysis was performed using Biointerpreter software.

[2] = test system: human RPMI8226 cells; experiment: IL-6 transcription in RPMI8226 cells; format: cell-based; conditions: 24 hours (FIG. 14)
Description: Quantitative PCR with SYBR Green I detection with Mastercycler® ep realplex (Eppendorf) was performed using LightCycler® 480 SYBR Green I Master (Roche Diagnostics). SYBR Green I assays were performed with 600 nM primers. All other reaction conditions were as described by the manufacturer. Amplification conditions were 5 minutes of initial denaturation at 95° C., followed by 40 cycles of each 15 seconds at 95° C., 15 seconds at 63.4° C., 20 seconds at 68° C., a melting curve from 60° C. to 95° C. was recorded. Quantification was performed using Pfaffl method, a relative quantification method in real-time PCR (Nucleic Acids Research 2001 29:2002-2007). Primers were synthesized by Invitrogen (Invitrogen-Canada, Burlington, Ont.).

[3] = test system: peripheral white cells; experiment: Cytokine/chemokine transcription in peripheral white cells treated ex vivo; format: cell-based, human
Description: FIG. 15 Induction of transcription of IL-6, IL-8, IL-1b, MIP1b cytokine/chemokines by MGCD0103 in peripheral white cells ex vivo from a MDS patient and in vivo in an AML patient with response (Patient J).
as §1

[4] = test system: RPMI-8226 myeloma cells; experiment: RT-PCR of MT3 transcription in RPMI-8226 cells; format: cell-based, human; conditions: 16 h, semi-quantitative RT-PCR (FIG. 2)
Description: RNA was extracted from 8×10^6 cells using the Qiagen RNeasy Mini kit (cat#74106, Qiagen, Missisauga Ont.) following the manufacturer's instructions. RT reaction was performed using the Expand Reverse Transcriptase kit from Roche (Cat#1 785 834 Roche Applied Biosciences, Laval, Que) with 1 μg total RNA together with 1 μl oligo(dT) primer (cat#y01212, Invitrogen-Canada, Burlington, Ont). cDNA was synthesized using an Eppendorf Mastercycler gradient PCR apparatus (Brinkmann Instruments Canada LTD., Mississauga, Ontario), using a two cycle protocol. For the 1st cycle reaction mixture (0.5 μl H2O, 4 μl of 5× Buffer, 2 μl DTT, 2 ul of 10 mM dNTPs, 0.5 μl RNAsin (cat#N211B, Promega, Fisher Scientific, Whitby, Ont.) and […] of the Expand Reverse Transcriptase (Cat#1785834, Roche, Laval, Quebec)) was incubated at 65° C. for 10 minutes and then set on ice. A second cycle was performed at 42° C. for 1 hour. The resulting cDNA products were kept at 4° C. until used.
One ul of the resulting cDNA was used for every amplification reaction with 18.9 ul H2O, 1.25 ul of 10 mM dNTPs, 0.5 ul of each primer pair, 2.5 ul of 10× Buffer. The PCR reaction was carried out in an Eppendorf Mastercycler gradient. The sequences of the primers used for the amplification of selected biomarkers, as well as the details of the PCR reaction cycles are featured below. […]

`Nc1ccccc1NC(=O)c1ccc(CNc2nccc(-c3cccnc3)n2)cc1` [MGCD0103] showed a fold induction at 1 µM ([1]; probe A_23_P16523, read-out: Fold Induction of GDF15 transcription) of 18.8, a fold induction at 1 µM ([1]; probe A_23_P41344, read-out: Fold Induction of EREG transcription) of 12.8 and a fold induction at 1 µM ([1]; probe A_23_P52336, read-out: Fold Induction of UNC5B transcription) of 2.66. For the same compound, the fold induction at 1 µM ([1]; probe A_23_P94754, read-out: Fold Induction of TNFSF15 transcription) was 4.43, the fold induction at 1 µM ([1]; probe A_23_P114947, read-out: Fold Induction of RGS2 transcription) was 4.43 and the fold induction at 1 µM ([1]; probe A_23_P142506, read-out: Fold Induction of GADD45B transcription) was 2.9. It also gave a fold induction at 1 µM ([1]; probe A_23_P149019, read-out: Fold Induction of BAI2 transcription) of 2.69, a fold induction at 1 µM ([1]; probe A_23_P151046, read-out: Fold Induction of KLRC1 transcription) of 3.12 and a fold induction at 1 µM ([1]; probe A_23_P259071, read-out: Fold Induction of AREG transcription) of 32.6. The fold induction at 1 µM ([1]; probe A_23_P315273, read-out: Fold Induction of MT3 transcription) was 5.16, the fold induction at 1 µM ([1]; probe A_24_P5856, read-out: Fold Induction of TNFSF9 transcription) was 3.32 and the fold induction at 1 µM ([1]; probe A_24_P217520, read-out: Fold Induction of EREG transcription) was 10.5. The “dose-dependent induction of IL-6 transcription” value [2] was “dose-dependent induction”, the “induction of transcription of IL-6, IL-8, IL-1b, MIP1b” value ([3]; peripheral white cells ex vivo from a MDS patient (Patient J) (FIG. 15)) was “induction” and the “induction of transcription of IL-6, IL-8, IL-1b, MIP1b” value ([3]; peripheral white cells from healthy volunteers treated ex vivo (FIG. 15)) was “No such induction”. The “Dose-dependent induction of MT3 transcription” value [4] was “Dose-dependent induction”.
